The assay deals with H358-SOS2 KO cells. Nature of the assay: H358-SOS2 KO cell proliferation inhibition (CellTiter-Glo, 3D methylcellulose). In kind it is cell-based. To be noted: 192 h, 8 days, CTG. The method, then: The effect of the compounds of the present invention on the proliferation of H358 cells with knockout of SOS2 (H358-SOS2 KO, Kyinno Biotechnology Co., Ltd.) was assessed by CellTiter-Glo luminescent cell viability assay kit method. The H358-SOS2 KO cell strain was cultured in complete medium at 37 °C with 5% CO2. A sterilized 1% methylcellulose 3D medium was prepared in advance. Cells in the logarithmic growth phase were harvested and counted using a […]. The cell viability was determined by the trypan blue exclusion method, and the cell viability was kept 90% or more. The cell concentration was adjusted. The cells were uniformly mixed and left to stand. After no visible gas exists in the cell suspension, 180 µL of the cell suspension was added into a 96-well plate at 180 µL/well, and the total number of cells was 2000. The cells in the 96-well plate were incubated at 37 °C with 5% CO2. A diluted test compound was added to each well using a multi-channel pipette. […] The cell plate was placed at room temperature for 20 min to stabilize the luminescence signal. The luminescence value was read, and the data were collected. The data were analyzed using the GraphPad Prism 7.0 software. Dose-response curves were fit to the data using nonlinear S-curve regression, and the IC50 value was calculated from the curves.
In general terms: ATP-based viability assays read luminescence as a measure of living cells.

Each structure is given as a SMILES string. pIC50: −log10 of the molar value.

As usually defined, the pIC50 is −log10 of the IC50, conventionally taken in molar units.

`[2H][C@](C)(Nc1nc(C)nc2c(N3CCOCC3)c(=O)n(C3(CF)CC3)cc12)c1cccc(C(F)F)c1F` [Example 55, (R)-4-((1-(3-(difluoromethyl)-2-fluorophenyl)ethyl-1-d)amino)-6-(1-(fluoromethyl)cyclopropyl)-2-methyl-8-morpholinylpyrido[4,3-d]pyrimidine-7(6H)-one]: the pIC50 is 7.10.

For the origin of these results see patent EP4417607A1, “HETEROCYCLIC COMPOUND AS SOS1 INHIBITOR AND USES THEREOF” (Nanjing Zaiming Pharmaceutical Co., Ltd., priority 2021, dated 2023).
